In patent publication US9617602B2, “Methods and compositions for determining resistance to androgen receptor therapy” (Aragon Pharmaceuticals, Inc., priority 2012, dated 2017):
Numbering of substitutions follows the chain as printed.

Tests used:
LNCaP ARN-509r1 cells = test: Endogenous gene transcriptional assay (real-time PCR of androgen responsive genes); assay type: cell-based, human; details: 1 nM R1881 or 30 μM compound, vehicle=1.00
Experimental: (§1) Total RNA was isolated using the Aurum™ total RNA isolation kit (BIO-RAD, Hercules, Calif.). RNA (1 μg) was reverse transcribed using the iScript cDNA synthesis kit (BIO-RAD, Hercules, Calif.) to produce cDNA. Real-time PCR was performed using the Applied Biosystems 7900HT instrument and SYBR Green PCR Master Mix (Applied Biosystems, Foster City, Calif.). PCR reactions were performed in 6 μL according to the manufacturer's protocol and a thermocycle protocol of 95° C. for 10 minutes followed by 40 cycles of 95° C. for 15 seconds and 58° C. for 1 minute. Androgen responsive gene (PSA, SLUG, TMPRSS2, STEAP4, FKBP5, ORM1, NOV, FASN, NKX3.1, AMIGO2, BDNF, CAMK2N1, HPGD, NCAPD3, PLD1) expression was normalized to GAPDH expression and expressed relative to vehicle treatment of the parental cell line.
(§2) Gene expression was normalized to GAPDH as described above.

LNCaP cells [1] = test: Transcriptional reporter assay (probasin-luciferase); assay type: cell-based, human; details: [R1881] = 10 nM
Experimental: (§3) With the exception of the LNCaP/AR(cs)-Luc cells that contain an integrated androgen responsive reporter, cells were transiently transfected using Lipofectin® (Life Technologies) according to the manufacturer's protocol. […] Following transfection, the cells were incubated for 4 hours.
(§4) Following 48 hour incubation the medium was removed and the cells were lysed in 40 μL of lysis buffer (25 mM Tris Phosphate, 2 mM CDTA, 10% Glycerol, 0.5% Triton X-100, 2 mM DTT).

[2] = test system: Class 2 resistant cell lines; test: as above; assay type: cell-based, human; details: Class 2; [R1881] = 10 nM
Experimental: as §3, §4

[3] = test system: Class 2 MDV3100- and ARN-509-resistant cell lines; test: Proliferation assay (CellTiter-Glo), agonist and antagonist mode; assay type: cell-based, human
[4] = test system: Class 1 ARN-509- and MDV3100-resistant cell lines; test: as above; assay type: cell-based, human
LNCaP cells [5] = test: as above; assay type: cell-based, human
[6] = test system: Class 1 resistant cell lines; test: Transcriptional reporter assay (probasin-luciferase); assay type: cell-based, human; details: Class 1; [R1881] = 10 nM
Experimental: as §3, §4

LNCaP/AR-Luc cells = test: Endogenous gene transcriptional assay (real-time PCR of androgen responsive genes); assay type: cell-based, human; details: 1 nM R1881 or 30 μM compound, vehicle=1.00
Experimental: as §1, §2

LNCaP/AR(cs) cells [7] = test: Transcriptional reporter assay (probasin-luciferase); assay type: cell-based, human; details: [R1881] = 10 nM
Experimental: as §3, §4

LNCaP/AR(cs) cells [8] = test: Proliferation assay (CellTiter-Glo), agonist and antagonist mode; assay type: cell-based, human
LNCaP ARN-509r2 cells = test: Endogenous gene transcriptional assay (real-time PCR of androgen responsive genes); assay type: cell-based, human; details: 1 nM R1881 or 30 μM compound, vehicle=1.00
Experimental: as §1, §2

LNCaP cells [9] = test: as above; assay type: cell-based, human; details: 1 nM R1881 or 30 μM compound, vehicle=1.00
Experimental: as §1, §2

LNCaP/AR(cs) cells [10] = test: as above; assay type: cell-based, human
Experimental: as §1, §2

AR in LNCaP/AR(cs) cells = test: AR chromatin immunoprecipitation (ChIP) of AR target genes; assay type: cell-based, human; details: 1 nM R1881, 4 hours
Text: The samples were amplified on the ABI 7900HT instrument.

wild-type AR = target: T1, wild-type AR (Homo sapiens, UniProt P10275, DEL79-80/DUP473-473)
T1 sequence (P10275 with tags, fused parts or gaps DEL79-80/DUP473-473): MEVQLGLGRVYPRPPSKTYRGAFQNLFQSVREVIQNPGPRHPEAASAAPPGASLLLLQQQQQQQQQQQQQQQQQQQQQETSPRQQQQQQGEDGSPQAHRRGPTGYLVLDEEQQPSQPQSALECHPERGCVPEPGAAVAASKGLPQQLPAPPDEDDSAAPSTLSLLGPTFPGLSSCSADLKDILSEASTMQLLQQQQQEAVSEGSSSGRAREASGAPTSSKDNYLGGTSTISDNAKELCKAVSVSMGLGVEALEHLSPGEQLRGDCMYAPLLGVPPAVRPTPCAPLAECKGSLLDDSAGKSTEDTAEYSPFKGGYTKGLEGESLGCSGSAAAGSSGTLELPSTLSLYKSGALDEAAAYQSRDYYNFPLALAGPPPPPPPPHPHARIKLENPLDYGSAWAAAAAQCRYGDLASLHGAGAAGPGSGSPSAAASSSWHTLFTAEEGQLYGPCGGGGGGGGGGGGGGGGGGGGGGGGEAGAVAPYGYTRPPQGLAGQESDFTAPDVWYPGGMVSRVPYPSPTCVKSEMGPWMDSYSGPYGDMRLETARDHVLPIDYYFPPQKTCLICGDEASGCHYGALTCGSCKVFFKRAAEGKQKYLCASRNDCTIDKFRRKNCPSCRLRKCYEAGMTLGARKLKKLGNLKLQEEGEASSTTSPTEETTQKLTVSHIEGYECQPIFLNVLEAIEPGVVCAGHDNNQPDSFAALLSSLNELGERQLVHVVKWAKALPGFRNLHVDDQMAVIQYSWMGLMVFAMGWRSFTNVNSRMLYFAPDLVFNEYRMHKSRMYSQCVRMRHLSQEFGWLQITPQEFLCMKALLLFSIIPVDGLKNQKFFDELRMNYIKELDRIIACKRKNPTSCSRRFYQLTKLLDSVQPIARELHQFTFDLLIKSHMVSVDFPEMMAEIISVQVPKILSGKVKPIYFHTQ
Experimental: (§5) Transcriptional reporter assays were performed by seeding 100 μL of HEPG2 cells at a density of 250,000 cells/mL into 96-well cell culture plates in MEM supplemented with 10% charcoal stripped serum and allowed to attach overnight at 37° C.
(§6) Cells were transiently transfected using Lipofectin® (Life Technologies) according to the manufacturer's protocol.
as §4
(§7) The AR transcriptional reporter assays were performed essentially as described above with minor modifications. Triplicate transfections were performed using 50 ng pCDNA3-AR or pCDNA3-AR mutant, 65 ng 4×ARE-Luciferase, 20 ng pRL (Promega), and 25 ng pCMX.

wild-type VP16-AR = wild-type VP16-AR (Homo sapiens, UniProt P10275)
Experimental: (§8) AR point mutations were generated in VP16-AR using the QuickChange II Site-Directed Mutagenesis Kit (Agilent Technologies, Santa Clara, Calif.) according to the manufacturer's protocol.
(§9) Transcription assays were performed essentially as described above. […] Luciferase activity was measured as described above.

F876L VP16-AR = F876L VP16-AR (Homo sapiens, UniProt P10275, DEL79-80/DUP473-473/F877L)
Experimental: as §8, §9

F876L AR = target: T2, F876L AR (Homo sapiens, UniProt P10275, DEL79-80/DUP473-473/F877L)
T2 sequence (P10275 with tags, fused parts or gaps DEL79-80/DUP473-473/F877L): T1 sequence (P10275 with tags, fused parts or gaps DEL79-80/DUP473-473) with F876L
Experimental: as §5, §6, §4, §7

[11] = Homo sapiens, 168 h, read-out: Antagonist Proliferation Assay (% Viability)
[12] = Table 4A, 1 nM R1881 or 30 μM compound, vehicle=1.00
[13] = Tables 9A/9B, 1 nM R1881, vehicle=1.00

C[C@]1(O)CC[C@H]2[C@@H]3CCC4=CC(=O)CCC4=C3C=C[C@@]21C [R1881, methyltrienolone]
AMIGO2 gene expression (LNCaP ARN-509r1 cells): 0.21 | BDNF gene expression (LNCaP ARN-509r1 cells): 0.31 | CAM2KN1 gene expression (LNCaP ARN-509r1 cells): 0.01 | FASN gene expression (LNCaP ARN-509r1 cells): 3.12 | FKBP5 gene expression (LNCaP ARN-509r1 cells): 53.45 | HPGD gene expression (LNCaP ARN-509r1 cells): 61.39 | NCAPD3 gene expression (LNCaP ARN-509r1 cells): 90.51 | NKX3.1 gene expression (LNCaP ARN-509r1 cells): 8.11 | NOV gene expression (LNCaP ARN-509r1 cells): 0.03 | ORM1 gene expression (LNCaP ARN-509r1 cells): 1296.13 | PLD1 gene expression (LNCaP ARN-509r1 cells): 0.03 | PSA gene expression (LNCaP ARN-509r1 cells): 85.63 | SLUG gene expression (LNCaP ARN-509r1 cells): 164.28 | STEAP4 gene expression (LNCaP ARN-509r1 cells): 1184.45 | TMPRSS2 gene expression (LNCaP ARN-509r1 cells): 37.27 | Agonist Transcriptional Reporter Assay (% Max Activity) (LNCaP cells [1]): >90% | Antagonist Transcriptional Reporter Assay (% Max Activity) (LNCaP cells [1]): >90% | Agonist Transcriptional Reporter Assay (% Max Activity) [2]: >90% | Antagonist Transcriptional Reporter Assay (% Max Activity) [2]: >90% | Agonist Proliferation Assay (% Viability) ([3]; Class 2, [R1881] = 0.1 nM, 7 days): 100.0% | viability at 0.0001 µM [3, 11]: 100% | Agonist Proliferation Assay (% Viability) ([4]; Class 1, [R1881] = 0.1 nM, 7 days): 100.0% | viability at 0.0001 µM [4, 11]: 100% | Effect of R1881 on proliferation of Class 1 cells ([4]; high concentrations): inhibits proliferation | viability at 0.0001 µM (LNCaP cells [5]; [11]): 100% | Agonist Proliferation Assay (% Viability) (LNCaP cells [5]; [R1881] = 0.1 nM, 7 days): 100.0% | Agonist Transcriptional Reporter Assay (% Max Activity) [6]: >90% | Antagonist Transcriptional Reporter Assay (% Max Activity) [6]: >90% | AMIGO2 gene expression (LNCaP/AR-Luc cells): 0.54 | BDNF gene expression (LNCaP/AR-Luc cells): 0.18 | CAM2KN1 gene expression (LNCaP/AR-Luc cells): 0.11 | FASN gene expression (LNCaP/AR-Luc cells): 3.48 | FKBP5 gene expression (LNCaP/AR-Luc cells): 20.82 | HPGD gene expression (LNCaP/AR-Luc cells): 2.41 | NCAPD3 gene expression (LNCaP/AR-Luc cells): 17.27 | NKX3.1 gene expression (LNCaP/AR-Luc cells): 11.24 | NOV gene expression (LNCaP/AR-Luc cells): 0.47 | ORM1 gene expression (LNCaP/AR-Luc cells): 7.89 | PLD1 gene expression (LNCaP/AR-Luc cells): 0.15 | PSA gene expression (LNCaP/AR-Luc cells): 2.10 | SLUG gene expression (LNCaP/AR-Luc cells): 48.84 | STEAP4 gene expression (LNCaP/AR-Luc cells): 20.25 | TMPRSS2 gene expression (LNCaP/AR-Luc cells): 3.46 | Agonist Transcriptional Reporter Assay (% Max Activity) (LNCaP/AR(cs) cells [7]): >90% | Antagonist Transcriptional Reporter Assay (% Max Activity) (LNCaP/AR(cs) cells [7]): >90% | viability at 0.0001 µM (LNCaP/AR(cs) cells [8]; Homo sapiens, LNCaP/AR, 168 h, read-out: Antagonist Proliferation Assay (% Viability)): 100% | Agonist Proliferation Assay (% Viability) (LNCaP/AR(cs) cells [8]; LNCaP/AR(cs), [R1881] = 0.1 nM, 7 days): 100.0% | AMIGO2 gene expression (LNCaP ARN-509r2 cells): 0.55 | BDNF gene expression (LNCaP ARN-509r2 cells): 0.47 | CAM2KN1 gene expression (LNCaP ARN-509r2 cells): 0.02 | FASN gene expression (LNCaP ARN-509r2 cells): 4.82 | FKBP5 gene expression (LNCaP ARN-509r2 cells): 48.50 | HPGD gene expression (LNCaP ARN-509r2 cells): 59.30 | NCAPD3 gene expression (LNCaP ARN-509r2 cells): 54.95 | NKX3.1 gene expression (LNCaP ARN-509r2 cells): 10.20 | NOV gene expression (LNCaP ARN-509r2 cells): 0.07 | ORM1 gene expression (LNCaP ARN-509r2 cells): 625.99 | PLD1 gene expression (LNCaP ARN-509r2 cells): 0.02 | PSA gene expression (LNCaP ARN-509r2 cells): 7.89 | SLUG gene expression (LNCaP ARN-509r2 cells): 77.17 | STEAP4 gene expression (LNCaP ARN-509r2 cells): 377.41 | TMPRSS2 gene expression (LNCaP ARN-509r2 cells): 15.14 | AMIGO2 gene expression (LNCaP cells [9]): 0.68 | BDNF gene expression (LNCaP cells [9]): 0.40 | CAM2KN1 gene expression (LNCaP cells [9]): 0.13 | FASN gene expression (LNCaP cells [9]): 5.58 | FKBP5 gene expression (LNCaP cells [9]): 54.95 | HPGD gene expression (LNCaP cells [9]): 100.43 | NCAPD3 gene expression (LNCaP cells [9]): 104.69 | NKX3.1 gene expression (LNCaP cells [9]): 30.06 | NOV gene expression (LNCaP cells [9]): 0.15 | ORM1 gene expression (LNCaP cells [9]): 873.10 | PLD1 gene expression (LNCaP cells [9]): 0.02 | PSA gene expression (LNCaP cells [9]): 47.84 | SLUG gene expression (LNCaP cells [9]): 129.79 | STEAP4 gene expression (LNCaP cells [9]): 639.15 | TMPRSS2 gene expression (LNCaP cells [9]): 22.16 | AMIGO2 gene expression (LNCaP/AR(cs) cells [10]; [12]): 0.54 | BDNF gene expression (LNCaP/AR(cs) cells [10]; [12]): 0.48 | CAM2KN1 gene expression (LNCaP/AR(cs) cells [10]; [12]): 0.05 | FASN gene expression (LNCaP/AR(cs) cells [10]; [12]): 7.11 | FKBP5 gene expression (LNCaP/AR(cs) cells [10]; [12]): 97.01 | HPGD gene expression (LNCaP/AR(cs) cells [10]; [12]): 183.55 | NCAPD3 gene expression (LNCaP/AR(cs) cells [10]; [12]): 93.05 | NKX3.1 gene expression (LNCaP/AR(cs) cells [10]; [12]): 8.82 | NOV gene expression (LNCaP/AR(cs) cells [10]; [12]): 0.04 | ORM1 gene expression (LNCaP/AR(cs) cells [10]; [12]): 3444.31 | PLD1 gene expression (LNCaP/AR(cs) cells [10]; [12]): 0.02 | PSA gene expression (LNCaP/AR(cs) cells [10]; [12]): 19.16 | SLUG gene expression (LNCaP/AR(cs) cells [10]; [12]): 89.88 | STEAP4 gene expression (LNCaP/AR(cs) cells [10]; [12]): 1314.23 | TMPRSS2 gene expression (LNCaP/AR(cs) cells [10]; [12]): 17.51 | AMIGO2 gene expression (LNCaP/AR(cs) cells [10]; [13]): 0.98 | BDNF gene expression (LNCaP/AR(cs) cells [10]; [13]): 0.86 | CAM2KN1 gene expression (LNCaP/AR(cs) cells [10]; [13]): 0.04 | FASN gene expression (LNCaP/AR(cs) cells [10]; [13]): 4.12 | FKBP5 gene expression (LNCaP/AR(cs) cells [10]; [13]): 100.51 | HPGD gene expression (LNCaP/AR(cs) cells [10]; [13]): 324.60 | NCAPD3 gene expression (LNCaP/AR(cs) cells [10]; [13]): 95.54 | NKX3.1 gene expression (LNCaP/AR(cs) cells [10]; [13]): 12.72 | NOV gene expression (LNCaP/AR(cs) cells [10]; [13]): 0.05 | ORM1 gene expression (LNCaP/AR(cs) cells [10]; [13]): 6987.01 | PLD1 gene expression (LNCaP/AR(cs) cells [10]; [13]): 0.03 | PSA gene expression (LNCaP/AR(cs) cells [10]; [13]): 22.14 | SLUG gene expression (LNCaP/AR(cs) cells [10]; [13]): 91.84 | STEAP4 gene expression (LNCaP/AR(cs) cells [10]; [13]): 1498.46 | TMPRSS2 gene expression (LNCaP/AR(cs) cells [10]; [13]): 35.42 | AR DNA binding (ChIP), LNCaP/AR(cs) cells (AR in LNCaP/AR(cs) cells): promoted AR DNA

CC(C)(O)C(=O)Nc1ccc([N+](=O)[O-])c(C(F)(F)F)c1 [Hydroxyflutamide, hydroxyflutamide]
4X ARE Reporter Assay WT Emax (wild-type AR): 28.9 ± 5.0 percent maximal R1881 response | AR-VP16 WT Emax (wild-type VP16-AR): 42.28 ± 4.44 percent maximal R1881 response | AR-VP16 F876L Emax (F876L VP16-AR): 5.36 ± 5.35 percent maximal R1881 response | 4X ARE Reporter Assay F876L Emax (F876L AR): 0.8 ± 0.2 percent maximal R1881 response
